# Results reported in US9284321B2, “Piperazino[1,2-a]indol-1-ones and [1,4]diazepino[1,2-a]indol-1-one” (Hoffmann-La Roche Inc., priority 2012, dated 2016).
# Assays:
# [1] = system: human embryonic stem cell derived neural stem cells (NSCs); assay: Neural Stem Cell Proliferation Assay (neurogenesis assay, ATP levels by CellTiterGlo); format: cell-based; settings: 96 h, compound concentration at which 150% activity of control (100%) is reached, NSC proliferation by ATP level after 4 days incubation, dose response 8 μM to 8 nM
# How it was run: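 Human ESC-derived NSCs (dual SMAD inhibition) seeded 4 h before compounds, 11-point 2-fold series 8 μM–8 nM; 4 days at 37 °C, 5% CO2. ATP by CellTiterGlo luminescence as cell-number proxy, response as % of media control (0.25% DMSO); EC150 = concentration giving 150% of control.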
Compound,EC (150% of control) [1] [µM],melting point [°C]
"N#Cc1cc(-c2ccc(F)cc2F)c2c(c1)cc1n2CCCNC1=O [Example 221, 7-(2,4-Difluorophenyl)-1-oxo-2,3,4,5-tetrahydro-[1,4]diazepino[1,2-a]indole-9-carbonitrile]",0.073,216.5
"N#Cc1cc(-c2cc(F)cc(F)c2)c2c(c1)cc1n2CCNC1=O [Example 222, 6-(3,5-Difluorophenyl)-1-oxo-3,4-dihydro-2H-pyrazino[1,2-a]indole-8-carbonitrile]",0.22,264
"N#Cc1cc(-c2cccc(F)c2)c2c(c1)cc1n2CCNC1=O [Example 223, 6-(3-Fluorophenyl)-1-oxo-3,4-dihydro-2H-pyrazino[1,2-a]indole-8-carbonitrile]",0.076,248.5
"N#Cc1cc(-c2ccc(N)nc2)c2c(c1)cc1n2CCNC1=O [Example 224, 6-(6-Aminopyridin-3-yl)-1-oxo-3,4-dihydro-2H-pyrazino[1,2-a]indole-8-carbonitrile]",0.76,305
"N#Cc1cc(-c2cncnc2)c2c(c1)cc1n2CCNC1=O [Example 225, 1-Oxo-6-pyrimidin-5-yl-3,4-dihydro-2H-pyrazino[1,2-a]indole-8-carbonitrile]",1.75,323.5
"N#Cc1cc(-c2ccc(Cl)nc2)c2c(c1)cc1n2CCNC1=O [Example 226, 6-(6-Chloropyridin-3-yl)-1-oxo-3,4-dihydro-2H-pyrazino[1,2-a]indole-8-carbonitrile]",2.2,300.5
"N#Cc1cc(-c2ccnc(Cl)c2)c2c(c1)cc1n2CCNC1=O [Example 227, 6-(2-Chloropyridin-4-yl)-1-oxo-3,4-dihydro-2H-pyrazino[1,2-a]indole-8-carbonitrile]",0.55,286
"N#Cc1cc(-c2ccc(CO)cc2)c2c(c1)cc1n2CCNC1=O [Example 228, 6-[4-(Hydroxymethyl)-phenyl]-1-oxo-3,4-dihydro-2H-pyrazino[1,2-a]indole-8-carbonitrile]",0.041,257.5
"N#Cc1cc(-c2cccnc2)c2c(c1)cc1n2CCNC1=O [Example 229, 1-Oxo-6-pyridin-3-yl-3,4-dihydro-2H-pyrazino[1,2-a]indole-8-carbonitrile]",0.94,272.5
"CC(C)(C)c1ccc(-c2cc(C#N)cc3cc4n(c23)CCNC4=O)cc1 [Example 230, 6-(4-tert-Butylphenyl)-1-oxo-3,4-dihydro-2H-pyrazino[1,2-a]indole-8-carbonitrile]",0.14,300
"Cc1cc(-c2cc(C#N)cc3cc4n(c23)CCNC4=O)ccc1F [Example 231, 6-(4-Fluoro-3-methylphenyl)-1-oxo-3,4-dihydro-2H-pyrazino[1,2-a]indole-8-carbonitrile]",0.058,290
"N#Cc1cc(-c2ccc([N+](=O)[O-])cc2)c2c(c1)cc1n2CCNC1=O [Example 232, 6-(4-Nitrophenyl)-1-oxo-3,4-dihydro-2H-pyrazino[1,2-a]indole-8-carbonitrile]",0.02,369.5
"Cc1ccc(-c2cc(C#N)cc3cc4n(c23)CCNC4=O)cc1F [Example 233, 6-(3-Fluoro-4-methylphenyl)-1-oxo-3,4-dihydro-2H-pyrazino[1,2-a]indole-8-carbonitrile]",0.052,278.5
"N#Cc1cc(-c2ccc([N+](=O)[O-])cc2)c2c(c1)cc1n2CCCNC1=O [Example 234, 7-(4-Nitrophenyl)-1-oxo-2,3,4,5-tetrahydro-[1,4]diazepino[1,2-a]indole-9-carbonitrile]",0.21,193.5
"Cc1cc(-c2cc(C#N)cc3cc4n(c23)CCCNC4=O)ccc1F [Example 235, 7-(4-Fluoro-3-methylphenyl)-1-oxo-2,3,4,5-tetrahydro-[1,4]diazepino[1,2-a]indole-9-carbonitrile]",0.77,223.5
"N#Cc1cc(-c2ccc(Cl)cc2Cl)c2c(c1)cc1n2CCCNC1=O [Example 236, 7-(2,4-Dichlorophenyl)-1-oxo-2,3,4,5-tetrahydro-[1,4]diazepino[1,2-a]indole-9-carbonitrile]",0.13,253
"N#Cc1ccc(-c2cc(C#N)cc3cc4n(c23)CCCNC4=O)cc1 [Example 237, 7-(4-Cyanophenyl)-1-oxo-2,3,4,5-tetrahydro-[1,4]diazepino[1,2-a]indole-9-carbonitrile]",0.22,257
"N#Cc1cc(-c2cc(F)cc(F)c2)c2c(c1)cc1n2CCCNC1=O [Example 238, 7-(3,5-Difluorophenyl)-1-oxo-2,3,4,5-tetrahydro-[1,4]diazepino[1,2-a]indole-9-carbonitrile]",1,211
"N#Cc1cc(-c2cccc(F)c2)c2c(c1)cc1n2CCCNC1=O [Example 239, 7-(3-Fluorophenyl)-1-oxo-2,3,4,5-tetrahydro-[1,4]diazepino[1,2-a]indole-9-carbonitrile]",0.61,210.5
"Cc1c2n(c3c(-c4cc(F)c(F)c(F)c4)cc(C#N)cc13)CCNC2=O [Example 240, 10-Methyl-1-oxo-6-(3,4,5-trifluorophenyl)-3,4-dihydro-2H-pyrazino[1,2-a]indole-8-carbonitrile]",0.11,253
"Cc1c2n(c3c(-c4ccccc4)cc(C#N)cc13)CCNC2=O [Example 241, 10-Methyl-1-oxo-6-phenyl-3,4-dihydro-2H-pyrazino[1,2-a]indole-8-carbonitrile]",0.062,253
"Cc1c2n(c3c(-c4ccc(N)nc4)cc(C#N)cc13)CCNC2=O [Example 242, 6-(6-Aminopyridin-3-yl)-10-methyl-1-oxo-3,4-dihydro-2H-pyrazino[1,2-a]indole-8-carbonitrile]",0.68,332
"Cc1c2n(c3c(-c4ccncc4)cc(C#N)cc13)CCNC2=O [Example 243, 10-Methyl-1-oxo-6-pyridin-4-yl-3,4-dihydro-2H-pyrazino[1,2-a]indole-8-carbonitrile]",0.09,307
"Cc1c2n(c3c(-c4cc(F)c(F)c(F)c4)cc(C#N)cc13)CCCNC2=O [Example 244, 11-Methyl-1-oxo-7-(3,4,5-trifluorophenyl)-2,3,4,5-tetrahydro-[1,4]diazepino[1,2-a]indole-9-carbonitrile]",0.47,306
"Cc1c2n(c3c(-c4ccccc4)cc(C#N)cc13)CCCNC2=O [Example 245, 11-Methyl-1-oxo-7-phenyl-2,3,4,5-tetrahydro-[1,4]diazepino[1,2-a]indole-9-carbonitrile]",0.095,258
"Cc1c2n(c3c(-c4ccc(F)c(F)c4F)cc(C#N)cc13)CCNC2=O [Example 246, 10-Methyl-1-oxo-6-(2,3,4-trifluorophenyl)-3,4-dihydro-2H-pyrazino[1,2-a]indole-8-carbonitrile]",0.084,238
